# Data reported in patent US20230106943A1, “ENGINEERED ANTIMICROBIAL PEPTIDES AND USAGE THEREOF” (Peptilogics, Inc., priority 2021, published 2023).
# Where two headings read alike, the source gives them in different places. No end group written: not given here.
# Assays:
# [1] = Stability of 5 mg/mL SEQ ID NO: 1 solution pH 5.0 stored at 40° C. or −20° C. (content, pH, HPLC area %); assay type: physicochemical
# [2] = Example 6 solubility near saturation of SEQ ID NO: 1 in water at pH 5.0, 7.4, 8.1 (HPLC); assay type: physicochemical; conditions: for Purity of near saturation solution: water
# Experimental: SEQ ID NO: 1 was dissolved to near saturation of different pH values.
# 396.69 mg of SEQ ID NO:1 was weighed out and dissolved in approximately 3 mL of HPLC-grade water resulting in a clear and colorless solution. The pH was 4.80 and the concentration approximately 132 mg/mL. The pH was adjusted with 0.08 M NaOH to pH=4.99. 1.1 mL was pulled, transferred to a serum vial, frozen and lyophilized. The remaining solution was adjusted to pH=7.40 with 0.08 M and 1 M NaOH. 1.45 mL was pulled, transferred to a serum vial, frozen and lyophilized. The remaining solution was adjusted to pH=8.00 with 0.08 M NaOH. This remaining solution (˜1.9 mL) was transferred to a serum vial, frozen and lyophilized. After lyophilization 200 μL HPLC-grade water was added to the solids in the serum vials and a colorless slurry was obtained. An additional 200 μL HPLC-grade water was added to obtain clear and colorless solutions. At pH=5.0 the solids went into solution without foaming; solids at pH=7.4 and pH=8 took longer to dissolve. These solutions (0.4 mL) were transferred to conical Eppendorf tubes. The vials were washed with 0.2 mL of HPLC grade water and the washes were combined with the respective solutions at the three different pH conditions. The samples were frozen and lyophilized. To the lyo cakes 50 μL increments of HPLC grade water was added. Transition from suspension or slurry to viscous solution was hard to capture. After adding 150 μL to 350 μL of HPLC grade water and intermittent mixing and storage at ambient temperature viscous and clear solutions were obtained which turned to gels when stored refrigerated at 2-8° C. All viscous solutions were centrifuged for 10 min at 12 krpm. No visible pellets were detected after centrifugation. Supernatants of the samples were analyzed for peptide concentration and purity by HPLC analysis.
# [3] = Example 4 stability of concentrated solutions: pH (method 05627); assay type: physicochemical
# Experimental: (§1) The peptide formulation of SEQ ID NO: 1 dissolved in a saline solution with a pH of 5.0±0.1 was tested for stability under either −20° C. or 40° C. with 75% relative humidity (RH). […]
# [4] = Example 4 stability of concentrated solutions: Osmolality (method 69153); assay type: physicochemical
# Experimental: as §1
# [5] = 15.3 mg/mL solution, 40° C. and 75% RH, 1 Month
# [6] = 15.3 mg/mL solution, 40° C. and 75% RH, 2 Month
# [7] = 15.3 mg/mL solution, 40° C. and 75% RH, 3 Month
# [8] = 15.3 mg/mL solution, 40° C. and 75% RH, 6 Month
# [9] = 15.3 mg/mL solution, −20° C., 0 Month
# [10] = 15.3 mg/mL solution, −20° C., 1 Month
# [11] = 15.3 mg/mL solution, −20° C., 2 Month
# [12] = 15.3 mg/mL solution, −20° C., 3 Month
# [13] = 15.3 mg/mL solution, −20° C., 6 Month
# [14] = 36.7 mg/mL solution, 40° C. and 75% RH, 1 Month
# [15] = 36.7 mg/mL solution, 40° C. and 75% RH, 2 Month
# [16] = 36.7 mg/mL solution, 40° C. and 75% RH, 3 Month
# [17] = 36.7 mg/mL solution, 40° C. and 75% RH, 6 Month
# [18] = 36.7 mg/mL solution, −20° C., 0 Month
# [19] = 36.7 mg/mL solution, −20° C., 1 Month
# [20] = 36.7 mg/mL solution, −20° C., 2 Month
# [21] = 36.7 mg/mL solution, −20° C., 3 Month
# [22] = 36.7 mg/mL solution, −20° C., 6 Month
# [23] = 72.4 mg/mL solution, 40° C. and 75% RH, 1 Month
# [24] = 72.4 mg/mL solution, 40° C. and 75% RH, 2 Month
# [25] = 72.4 mg/mL solution, 40° C. and 75% RH, 3 Month
# [26] = 72.4 mg/mL solution, 40° C. and 75% RH, 6 Month
# [27] = 72.4 mg/mL solution, −20° C., 0 Month
# [28] = 72.4 mg/mL solution, −20° C., 1 Month
# [29] = 72.4 mg/mL solution, −20° C., 2 Month
# [30] = 72.4 mg/mL solution, −20° C., 3 Month
# [31] = 72.4 mg/mL solution, −20° C., 6 Month
# [32] = 81.4 mg/mL solution, 40° C. and 75% RH, 1 Month
# [33] = 81.4 mg/mL solution, 40° C. and 75% RH, 2 Month
# [34] = 81.4 mg/mL solution, 40° C. and 75% RH, 3 Month
# [35] = 81.4 mg/mL solution, −20° C., 0 Month
# [36] = 81.4 mg/mL solution, −20° C., 1 Month
# [37] = 81.4 mg/mL solution, −20° C., 2 Month
# [38] = 81.4 mg/mL solution, −20° C., 3 Month
substance,measurement,setting,value
RRWVRRVRRVWRRVVRVVRRWVRR-NH2 [SEQ ID NO: 1],Solution pH,[1]; 7 days/−20° C.,4.95
same,Main peak SEQ ID NO: 1 area %,[1]; 14 days/−20° C.,95.4%
same,SEQ ID NO: 1 content,[1]; 54 days/−20° C.,5.09 mg/mL
same,Solution pH,[1]; 54 days/−20° C.,4.95
same,solubility,"[2]; pH 5, water, pH 5.0, read-out: Solubility of near saturation, Concentration",≥ 328 mg/mL
same,solubility,"[2]; pH 7.4, water, pH 7.4, read-out: Solubility of near saturation, Concentration",≥ 228 mg/mL
same,solubility,"[2]; pH 8.1, water, pH 8.1, read-out: Solubility of near saturation, Concentration",≥ 250 mg/mL
same,solubility,"[2]; pH=5.0, read-out: solubility near saturation concentration in water",328 mg/mL
same,solubility,"[2]; pH=7.4, read-out: solubility near saturation concentration in water",228 mg/mL
same,solubility,"[2]; pH=8.1, read-out: solubility near saturation concentration in water",250 mg/mL
same,Purity of near saturation solution,[2]; pH 5.0,95.6%
same,Purity of near saturation solution,[2]; pH 7.4,97.2%
same,Purity of near saturation solution,[2]; pH 8.1,96.7%
same,pH,[3]; [5],Average Reading: 4.9
same,pH,[3]; [6],Average Reading: 5.0
same,pH,[3]; [7],Average Reading: 5.0
same,pH,[3]; [8],5.0
same,pH,[3]; [9],Average Reading: 4.9
same,pH,[3]; [10],Average Reading: 5.0
same,pH,[3]; [11],Average Reading: 4.9
same,pH,[3]; [12],Average Reading: 5.0
same,pH,[3]; [13],5.0
same,pH Average Reading,[3]; [14],Average Reading: 4.8
same,pH Average Reading,[3]; [15],Average Reading: 4.9
same,pH Average Reading,[3]; [16],Average Reading: 5.0
same,pH,[3]; [17],4.8
same,pH,[3]; [18],Average Reading: 4.9
same,pH,[3]; [19],Average Reading: 4.8
same,pH,[3]; [20],Average Reading: 4.9
same,pH,[3]; [21],Average Reading: 5.0
same,pH,[3]; [22],4.9
same,pH Average Reading,[3]; [23],Average Reading: 4.7
same,pH Average Reading,[3]; [24],Average Reading: 4.9
same,pH Average Reading,[3]; [25],Average Reading: 5.0
same,pH,[3]; [26],4.8
same,pH Average Reading,[3]; [27],Average Reading: 4.9
same,pH Average Reading,[3]; [28],Average Reading: 4.7
same,pH Average Reading,[3]; [29],Average Reading: 4.8
same,pH Average Reading,[3]; [30],Average Reading: 5.0
same,pH,[3]; [31],4.8
same,pH,[3]; [32],4.9
same,pH,[3]; [33],4.9
same,pH,[3]; [34],4.9
same,pH,[3]; [35],4.6
same,pH,[3]; [36],4.8
same,pH,[3]; [37],4.9
same,pH,[3]; [38],4.6
same,Osmolality,[4]; [5],Average Reading: 82 mOsmol/kg
same,Osmolality,[4]; [6],Average Reading: 83 mOsmol/kg
same,Osmolality,[4]; [7],Average Reading: 80 mOsmol/kg
same,Osmolality,[4]; [8],85 mOsmol/kg
same,Osmolality,[4]; [9],Average Reading: 82 mOsmol/kg
same,Osmolality,[4]; [10],Average Reading: 82 mOsmol/kg
same,Osmolality,[4]; [11],Average Reading: 82 mOsmol/kg
same,Osmolality,[4]; [12],Average Reading: 82 mOsmol/kg
same,Osmolality,[4]; [13],84 mOsmol/kg
same,Osmolality,"[4]; 15.3 mg/mL solution, −20° C., 9 Month",83 mOsmol/kg
same,Osmolality Average Reading,[4]; [14],Average Reading: 188 mOsmol/kg
same,Osmolality Average Reading,[4]; [15],Average Reading: 189 mOsmol/kg
same,Osmolality Average Reading,[4]; [16],Average Reading: 191 mOsmol/kg
same,Osmolality,[4]; [17],193 mOsmol/kg
same,Osmolality,[4]; [18],Average Reading: 190 mOsmol/kg
same,Osmolality,[4]; [19],Average Reading: 188 mOsmol/kg
same,Osmolality,[4]; [20],Average Reading: 190 mOsmol/kg
same,Osmolality,[4]; [21],Average Reading: 193 mOsmol/kg
same,Osmolality,[4]; [22],190 mOsmol/kg
same,Osmolality,"[4]; 36.7 mg/mL solution, −20° C., 9 Month",190 mOsmol/kg
same,Osmolality Average Reading,[4]; [23],Average Reading: 374 mOsmol/kg
same,Osmolality Average Reading,[4]; [24],Average Reading: 379 mOsmol/kg
same,Osmolality Average Reading,[4]; [25],Average Reading: 371 mOsmol/kg
same,Osmolality,[4]; [26],194 mOsmol/kg
same,Osmolality Average Reading,[4]; [27],Average Reading: 371 mOsmol/kg
same,Osmolality Average Reading,[4]; [28],Average Reading: 374 mOsmol/kg
same,Osmolality Average Reading,[4]; [29],Average Reading: 376 mOsmol/kg
same,Osmolality Average Reading,[4]; [30],Average Reading: 374 mOsmol/kg
same,Osmolality,[4]; [31],195 mOsmol/kg
same,Osmolality,"[4]; 72.4 mg/mL solution, −20° C., 9 Month",375 mOsmol/kg
same,Osmolality,[4]; [32],489 mOsm/kg
same,Osmolality,[4]; [33],491 mOsm/kg
same,Osmolality,[4]; [34],492 mOsm/kg
same,Osmolality,[4]; [35],485 mOsm/kg
same,Osmolality,[4]; [36],489 mOsm/kg
same,Osmolality,[4]; [37],488 mOsm/kg
same,Osmolality,[4]; [38],486 mOsm/kg
same,pKa,,~12.5
